Tested on: Demodex folliculorum
Assay: In vitro killing of live Demodex on epilated eyelashes, observed by light microscopy over 90 minutes
Conditions: for Kill Rate: 90 min observation; for Average Time to Death: value 90 denotes no effect
Text: In Vitro Activity of Tapinarof Based Formulations in Killing Demodex folliculorum The purpose of this study is to evaluate the effectiveness of a composition comprising Tapinarof in killing Demodex for clinical treatment. […] Following informed consent, one to four lashes with significant cylindrical dandruff were selected for epilation. Lashes were firmly grasped near the base and gently teased out with a slow circular motion to prevent cylindrical dandruff and Demodex from being left behind on the lid margin. Epilated lashes were then placed onto a glass slide and the number of live organisms under light microscopy was then recorded. Lashes with live Demodex were then included in the study. Each lash obtained was then assigned to one of 13 study reagents (Table 1). […] Observation of the study material with the Demodex took place over 90 minutes with checks under light microscopy every five minutes for cessation of Demodex activity. Organism death was recorded when all rotary movement of Demodex appendages ceased. At least five lashes with live Demodex were evaluated for each reagent. Results were recorded in Microsoft Excel and statistical analysis for significant differences in average time to death were done with two-tailed t-test using the same software (Table 1). The value 90 was used to denote no effect.

[1] = reagent at 50%, checks every 5 min
[2] = reagent at 80%, checks every 5 min
[3] = tapinarof 0.1% in 50% isopropyl alcohol
[4] = tapinarof 0.5% in 50% isopropyl alcohol
[5] = tapinarof 1% in 50% isopropyl alcohol

SMILES	Kill Rate [1] [%]	Average Time to Death (reagent at 50%) [min]	Kill Rate [2] [%]	Average Time to Death (reagent at 80%) [min]	other results
CC(C)=O [Acetone]	33	82.5	29	9.7	–
CC#N [Acetonitrile]	88	31.43	100	5.83	–
CCO [Ethanol]	100	33.64	–	–	–
CC(C)O [Isopropyl alcohol]	0	>90	–	–	–
CC(C)c1c(O)cc(/C=C/c2ccccc2)cc1O [Tapinarof, 3,5-dihydroxy-4-isopropyl-trans-stilbene]	–	–	–	–	Kill Rate [3]: 8%; Average Time to Death [3]: 80 min; Kill Rate [4]: 29%; Average Time to Death [4]: 10.82 min; Kill Rate [5]: 33%; Average Time to Death [5]: 60 min; in vitro killing effect against Demodex mites (in words) (tapinarof at the 0.1% concentration (p=0.34)): a significant effect was not observed; in vitro killing effect against Demodex mites (in words) (tapinarof at the 0.5% and 1% concentrations): moderate in vitro killing effect
CCOCCOCCO [Transcutol]	100	35	100	15	–
